{"source": "patent US20260258502A1", "about": "“METHODS AND REAGENTS FOR DETECTION OF CIRCULAR DNA MOLECULES IN BIOLOGICAL SAMPLES” (priority 2022, published 2026)", "tested_on": "Human TK6 cells", "experiment": "Duplex sequencing (DS) of human TK6 cells treated with genotoxic compounds: putative DNA circle frequency and mutation frequency", "type": "cell-based", "settings": "detected by DS, dose groups vs untreated group, proxy for clastogenicity", "method": "To assess whether DNA circle frequency is a proxy for clastogenicity, DS data for various genotoxic agents were re-analyzed. ENU is a well-known potent mutagen and clastogen.\nHuman TK6 cells were treated with different potentially genotoxic compounds. DS libraries were prepared with 500 ng of DNA input. […] FIG. 10A-10B show the frequency of putative circles, calculated as frequency=(#circles detected)/(#duplex bases sequenced).", "data": [{"compound": "CCN(N=O)C(N)=O", "note": "[ENU]", "values": [{"measurement": "frequency of putative DNA circles per duplex base pair (#circles detected)/(#duplex bases sequenced)", "result": "increased candidate DNA circle frequency in a dose-dependent manner, reaching statistical significance in the highest dose group"}]}]}
